Results on three molecules are retold here after patent publication US20240279302A1, “OLFACTORY RECEPTOR EXPRESSING METHOD AND RESPONSE MEASUREMENT METHOD” (Kao Corporation, priority 2021, published 2024).

The target in one experiment is T1, consensus OR4K17 (Homo sapiens, UniProt Q8NGC6, A163V/E24Q/F120Y/F158L/G263S/I192T/I205M/I296T/I46V/K226R/L86V/P230S/S297A/V197I/V23I/V81M/V91T).
T1 construct: expressed in transfected cells; host or cells: HEK293
T1 sequence (Q8NGC6 with tags, fused parts or gaps V23I/E24Q/I46V/V81M/L86V/V91T/F120Y/F158L/A163V/I192T/V197I/I205M/K226R/P230S/G263S/I296T/S297A): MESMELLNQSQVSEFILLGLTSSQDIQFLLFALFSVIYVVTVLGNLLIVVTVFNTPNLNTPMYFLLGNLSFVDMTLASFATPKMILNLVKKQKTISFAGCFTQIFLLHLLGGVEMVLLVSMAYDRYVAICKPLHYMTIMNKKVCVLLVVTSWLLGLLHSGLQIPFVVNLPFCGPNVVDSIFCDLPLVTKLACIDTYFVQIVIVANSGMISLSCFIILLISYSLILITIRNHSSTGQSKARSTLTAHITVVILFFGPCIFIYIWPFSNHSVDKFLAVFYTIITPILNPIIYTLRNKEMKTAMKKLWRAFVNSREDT
Description: Luciferase assay, sulfur compounds. The format is cell-based.

A further experiment deals with OR2T1. The note with it: in the presence of a metal ion (JP-B-6122181); cited from earlier work.
Another experiment concerns the target T2, consensus OR6B1 (Homo sapiens, UniProt O95007, C165R/C227R/F212S/I201V/I253T/L3V/L50Q/L96H/N89S/S282A/T195A/V262A).
T2 construct: expressed in transfected cells; host or cells: HEK293
Briefly: Luciferase assay, sulfur compounds. It counts as cell-based. Conditions: in the presence of a copper ion.

In another experiment the target is OR2L13 (Homo sapiens, UniProt Q8N349). Conditions: JP-A-2020-510436; cited from earlier work.
Chain of OR2L13 (Q8N349 whole entry): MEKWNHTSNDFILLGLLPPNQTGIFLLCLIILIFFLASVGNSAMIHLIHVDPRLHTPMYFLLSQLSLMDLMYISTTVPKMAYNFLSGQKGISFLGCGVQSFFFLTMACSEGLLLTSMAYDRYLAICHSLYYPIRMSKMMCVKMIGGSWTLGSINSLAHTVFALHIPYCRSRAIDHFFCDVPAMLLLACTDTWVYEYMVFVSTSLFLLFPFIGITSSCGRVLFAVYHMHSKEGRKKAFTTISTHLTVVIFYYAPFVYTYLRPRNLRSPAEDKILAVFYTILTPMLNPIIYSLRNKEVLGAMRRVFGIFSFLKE
The target of a further experiment is OR4C15 (Homo sapiens, UniProt Q8NGM1). The note with it: JP-A-2020-510436; cited from earlier work.
Chain of OR4C15 (Q8NGM1 whole entry): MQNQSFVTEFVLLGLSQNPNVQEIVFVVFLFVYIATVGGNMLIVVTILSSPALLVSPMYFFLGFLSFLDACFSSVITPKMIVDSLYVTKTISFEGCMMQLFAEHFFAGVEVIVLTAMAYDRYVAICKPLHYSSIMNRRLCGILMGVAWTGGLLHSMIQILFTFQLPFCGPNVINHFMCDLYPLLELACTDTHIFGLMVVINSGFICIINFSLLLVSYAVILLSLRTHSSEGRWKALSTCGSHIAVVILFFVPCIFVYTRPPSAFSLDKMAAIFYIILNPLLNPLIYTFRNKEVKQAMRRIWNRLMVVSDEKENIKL
Where [1] appears, read: in the presence of a copper ion.

T2 sequence (O95007 whole entry L3V/L50Q/N89S/L96H/C165R/T195A/I201V/F212S/C227R/I253T/V262A/S282A): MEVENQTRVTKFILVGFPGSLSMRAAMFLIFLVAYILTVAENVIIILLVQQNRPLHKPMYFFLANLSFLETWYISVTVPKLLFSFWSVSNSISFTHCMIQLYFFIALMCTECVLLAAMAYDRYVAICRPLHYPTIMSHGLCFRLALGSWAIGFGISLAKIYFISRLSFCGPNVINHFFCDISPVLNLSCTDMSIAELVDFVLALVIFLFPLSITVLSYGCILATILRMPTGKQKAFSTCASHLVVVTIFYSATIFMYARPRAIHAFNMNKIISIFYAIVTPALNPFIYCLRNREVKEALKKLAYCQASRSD

For the molecule `CSSC` [dimethyl disulfide], the EC50 at consensus OR4K17 amounted to 568 µM. Further, on consensus OR4K17 (setting [1]), the “dose dependence of the response of consensus OR4K17” value was “dose-dependent response” and the “response of consensus OR4K17” value is on record as “responded”.

Turning to `CS` [methyl mercaptan], the “response of consensus OR4K17” value on consensus OR4K17 (setting [1]) is reported as “responded”. Besides, the “response of OR2T1” value with OR2T1 is on record as “respond”.

Turning to `CSSSC` [dimethyl trisulfide], the “response of consensus OR6B1” value on consensus OR6B1 is “responded”. In addition, at OR2L13, the “response of OR2L13” value is on record as “respond”. Besides, the “response of OR4C15” value on OR4C15 is listed as “respond”.
